# From ChEMBL document CHEMBL5465560, “Selectivity Literature for EUbOPEN Chemogenomic Library” (2024)
# Experiments:
# [1] = target: Protein kinase C delta type (Homo sapiens) (UniProt Q05655); assay: Selectivity interaction (KinomeScan (DiscoverX)) EUB0001049a PRKCD; conditions: at 1 µM
# [2] = target: Serine/threonine-protein kinase pim-2 (Homo sapiens, UniProt Q9P1W9); assay: Selectivity interaction (Kinase panel (literature)) EUB0001199aCl PIM2; conditions: at 1 µM
# [3] = target: T1, Mitogen-activated protein kinase kinase kinase 5 (Homo sapiens) (UniProt Q99683); assay: Selectivity interaction (KinomeScan (DiscoverX)) EUB0000595a MAP3K5; conditions: at 10 µM
# T1 sequence (whole entry): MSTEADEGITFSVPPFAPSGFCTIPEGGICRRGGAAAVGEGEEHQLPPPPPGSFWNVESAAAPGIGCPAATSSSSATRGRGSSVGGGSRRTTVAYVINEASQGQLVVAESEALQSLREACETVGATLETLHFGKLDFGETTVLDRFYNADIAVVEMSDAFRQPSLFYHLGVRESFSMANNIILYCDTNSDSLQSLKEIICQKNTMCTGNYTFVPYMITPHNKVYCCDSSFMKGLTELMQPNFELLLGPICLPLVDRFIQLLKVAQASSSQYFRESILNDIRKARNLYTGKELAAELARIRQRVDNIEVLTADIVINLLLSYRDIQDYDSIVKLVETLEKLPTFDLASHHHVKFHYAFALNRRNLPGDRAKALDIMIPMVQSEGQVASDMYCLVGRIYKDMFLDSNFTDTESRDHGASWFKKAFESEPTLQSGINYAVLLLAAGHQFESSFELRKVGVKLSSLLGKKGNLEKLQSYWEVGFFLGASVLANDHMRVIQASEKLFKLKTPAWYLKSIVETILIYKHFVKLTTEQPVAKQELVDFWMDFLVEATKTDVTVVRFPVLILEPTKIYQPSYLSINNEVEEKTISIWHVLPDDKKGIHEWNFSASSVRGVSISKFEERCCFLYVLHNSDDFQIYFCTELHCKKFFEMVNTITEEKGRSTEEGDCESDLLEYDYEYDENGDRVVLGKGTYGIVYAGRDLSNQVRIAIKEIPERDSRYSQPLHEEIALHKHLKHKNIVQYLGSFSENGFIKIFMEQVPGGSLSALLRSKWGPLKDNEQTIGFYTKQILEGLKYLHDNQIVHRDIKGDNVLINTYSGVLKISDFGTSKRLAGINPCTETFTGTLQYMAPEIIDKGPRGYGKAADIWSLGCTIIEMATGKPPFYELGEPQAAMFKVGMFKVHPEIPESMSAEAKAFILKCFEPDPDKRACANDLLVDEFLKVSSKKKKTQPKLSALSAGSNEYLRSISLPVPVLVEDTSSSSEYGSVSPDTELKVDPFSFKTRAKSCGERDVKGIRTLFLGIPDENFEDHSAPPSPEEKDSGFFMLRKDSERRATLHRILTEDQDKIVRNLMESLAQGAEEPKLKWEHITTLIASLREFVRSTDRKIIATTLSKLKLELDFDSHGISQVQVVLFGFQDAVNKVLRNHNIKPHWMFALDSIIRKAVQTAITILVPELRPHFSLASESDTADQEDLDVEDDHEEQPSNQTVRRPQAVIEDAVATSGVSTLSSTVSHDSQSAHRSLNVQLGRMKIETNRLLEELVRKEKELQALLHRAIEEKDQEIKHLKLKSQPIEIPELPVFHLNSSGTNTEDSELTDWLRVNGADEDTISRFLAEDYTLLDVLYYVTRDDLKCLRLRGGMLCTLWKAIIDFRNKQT
# [4] = target: Mitogen-activated protein kinase 7 (Homo sapiens) (UniProt Q13164); assay: Selectivity interaction (KinomeScan (DiscoverX)) EUB0000045b MAPK7
# [5] = target: T2, Serine/threonine-protein kinase RIO3 (Homo sapiens) (UniProt O14730); assay: Selectivity interaction (KinomeScan (DiscoverX)) EUB0001619a RIOK3; conditions: at 1 µM
# T2 sequence (whole entry): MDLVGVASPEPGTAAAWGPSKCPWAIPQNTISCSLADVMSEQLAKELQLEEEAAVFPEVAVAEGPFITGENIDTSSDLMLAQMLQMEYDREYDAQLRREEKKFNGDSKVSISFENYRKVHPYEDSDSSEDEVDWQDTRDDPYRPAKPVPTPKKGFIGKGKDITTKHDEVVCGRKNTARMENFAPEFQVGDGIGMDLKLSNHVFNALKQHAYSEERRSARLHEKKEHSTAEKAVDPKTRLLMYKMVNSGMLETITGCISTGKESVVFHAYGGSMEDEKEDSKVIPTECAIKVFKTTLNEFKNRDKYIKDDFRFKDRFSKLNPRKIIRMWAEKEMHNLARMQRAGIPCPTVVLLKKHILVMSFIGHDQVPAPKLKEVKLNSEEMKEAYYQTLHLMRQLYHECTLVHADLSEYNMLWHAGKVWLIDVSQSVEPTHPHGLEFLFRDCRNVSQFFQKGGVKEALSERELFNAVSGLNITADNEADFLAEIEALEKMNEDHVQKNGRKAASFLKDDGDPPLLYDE
# [6] = target: T3, Myosin light chain kinase family member 4 (Homo sapiens) (UniProt Q86YV6); assay: Selectivity interaction (KinomeScan (DiscoverX)) EUB0001619a MYLK4; conditions: at 1 µM
# T3 sequence (whole entry): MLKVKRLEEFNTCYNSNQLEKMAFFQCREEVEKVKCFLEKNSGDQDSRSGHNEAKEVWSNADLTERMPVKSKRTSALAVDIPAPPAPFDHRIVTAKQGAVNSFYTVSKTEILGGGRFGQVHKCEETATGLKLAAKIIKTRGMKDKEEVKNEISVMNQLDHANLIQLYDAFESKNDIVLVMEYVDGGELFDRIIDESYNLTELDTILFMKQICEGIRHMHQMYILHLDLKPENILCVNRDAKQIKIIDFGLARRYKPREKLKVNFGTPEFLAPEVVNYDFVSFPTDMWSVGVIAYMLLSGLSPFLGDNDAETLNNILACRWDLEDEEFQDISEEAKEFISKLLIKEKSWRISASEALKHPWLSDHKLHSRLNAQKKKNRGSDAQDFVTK
# [7] = target: Rho-associated protein kinase 1 (Homo sapiens) (UniProt Q13464); assay: Selectivity interaction (KinomeScan (DiscoverX)) EUB0000607a ROCK1; conditions: at 10 µM
# [8] = target: Serine/threonine-protein kinase PLK2 (Homo sapiens, UniProt Q9NYY3); assay: Selectivity interaction (ProQinase) EUB0000171b PLK2
# Serine/threonine-protein kinase PLK2, sequence (Q9NYY3 whole entry, looked up): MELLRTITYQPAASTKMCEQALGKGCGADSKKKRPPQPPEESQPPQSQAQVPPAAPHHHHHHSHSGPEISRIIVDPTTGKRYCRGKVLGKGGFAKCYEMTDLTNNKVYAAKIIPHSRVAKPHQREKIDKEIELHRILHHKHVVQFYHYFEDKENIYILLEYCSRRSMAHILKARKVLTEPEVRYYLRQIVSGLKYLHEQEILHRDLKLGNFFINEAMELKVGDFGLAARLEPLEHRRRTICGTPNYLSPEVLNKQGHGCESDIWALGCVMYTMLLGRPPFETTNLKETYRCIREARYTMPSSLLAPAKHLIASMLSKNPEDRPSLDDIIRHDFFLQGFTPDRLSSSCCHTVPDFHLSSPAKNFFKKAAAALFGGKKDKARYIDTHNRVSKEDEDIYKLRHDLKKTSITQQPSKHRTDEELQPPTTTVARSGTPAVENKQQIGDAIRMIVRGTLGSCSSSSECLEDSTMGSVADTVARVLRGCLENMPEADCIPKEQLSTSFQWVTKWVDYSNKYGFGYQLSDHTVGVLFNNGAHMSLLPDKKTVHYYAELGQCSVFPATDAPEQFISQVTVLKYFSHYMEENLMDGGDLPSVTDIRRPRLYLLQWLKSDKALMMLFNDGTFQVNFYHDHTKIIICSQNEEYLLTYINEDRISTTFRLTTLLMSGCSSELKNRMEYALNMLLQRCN
# Mitogen-activated protein kinase 7 (Homo sapiens), sequence (Q13164 2-816 limits assumed): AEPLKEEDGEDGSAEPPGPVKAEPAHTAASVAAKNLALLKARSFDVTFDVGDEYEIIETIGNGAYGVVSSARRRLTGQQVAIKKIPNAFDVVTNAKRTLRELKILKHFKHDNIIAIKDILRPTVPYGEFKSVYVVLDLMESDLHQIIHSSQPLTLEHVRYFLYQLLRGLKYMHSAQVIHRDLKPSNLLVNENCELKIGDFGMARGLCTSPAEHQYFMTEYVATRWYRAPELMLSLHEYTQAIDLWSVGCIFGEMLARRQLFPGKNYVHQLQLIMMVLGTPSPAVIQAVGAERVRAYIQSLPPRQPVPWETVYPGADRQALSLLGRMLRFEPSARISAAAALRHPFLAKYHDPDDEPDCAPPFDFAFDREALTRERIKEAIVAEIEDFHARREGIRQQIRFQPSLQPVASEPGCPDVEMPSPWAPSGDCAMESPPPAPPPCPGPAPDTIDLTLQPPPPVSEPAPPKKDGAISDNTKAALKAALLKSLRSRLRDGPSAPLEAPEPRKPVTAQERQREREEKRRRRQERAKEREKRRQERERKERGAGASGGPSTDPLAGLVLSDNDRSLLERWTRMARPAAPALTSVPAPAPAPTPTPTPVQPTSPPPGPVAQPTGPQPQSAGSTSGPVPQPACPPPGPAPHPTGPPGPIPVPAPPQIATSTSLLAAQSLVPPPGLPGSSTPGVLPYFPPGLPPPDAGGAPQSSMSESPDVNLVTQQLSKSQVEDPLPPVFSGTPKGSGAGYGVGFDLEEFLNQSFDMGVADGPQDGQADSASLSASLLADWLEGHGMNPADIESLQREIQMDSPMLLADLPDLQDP
# Protein kinase C delta type (Homo sapiens), sequence (Q05655 whole entry, looked up): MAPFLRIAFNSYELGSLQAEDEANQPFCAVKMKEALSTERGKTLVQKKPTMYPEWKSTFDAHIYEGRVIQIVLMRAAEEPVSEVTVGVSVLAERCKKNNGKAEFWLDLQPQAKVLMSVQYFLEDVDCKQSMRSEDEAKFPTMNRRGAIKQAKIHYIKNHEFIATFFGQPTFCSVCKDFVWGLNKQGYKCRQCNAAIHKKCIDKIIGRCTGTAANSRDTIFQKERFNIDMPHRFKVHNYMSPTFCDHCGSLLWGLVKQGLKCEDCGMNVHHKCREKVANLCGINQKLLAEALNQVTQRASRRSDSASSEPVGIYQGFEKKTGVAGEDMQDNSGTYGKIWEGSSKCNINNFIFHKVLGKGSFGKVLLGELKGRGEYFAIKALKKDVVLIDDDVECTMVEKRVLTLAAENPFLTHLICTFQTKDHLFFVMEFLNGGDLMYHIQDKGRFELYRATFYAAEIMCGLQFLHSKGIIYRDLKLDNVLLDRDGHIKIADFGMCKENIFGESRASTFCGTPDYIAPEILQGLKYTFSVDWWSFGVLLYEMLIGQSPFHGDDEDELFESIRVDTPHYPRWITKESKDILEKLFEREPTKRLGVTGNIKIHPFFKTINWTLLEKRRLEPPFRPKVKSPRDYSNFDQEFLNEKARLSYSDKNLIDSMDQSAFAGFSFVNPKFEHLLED
# Rho-associated protein kinase 1 (Homo sapiens), sequence (Q13464 2-1354 limits assumed): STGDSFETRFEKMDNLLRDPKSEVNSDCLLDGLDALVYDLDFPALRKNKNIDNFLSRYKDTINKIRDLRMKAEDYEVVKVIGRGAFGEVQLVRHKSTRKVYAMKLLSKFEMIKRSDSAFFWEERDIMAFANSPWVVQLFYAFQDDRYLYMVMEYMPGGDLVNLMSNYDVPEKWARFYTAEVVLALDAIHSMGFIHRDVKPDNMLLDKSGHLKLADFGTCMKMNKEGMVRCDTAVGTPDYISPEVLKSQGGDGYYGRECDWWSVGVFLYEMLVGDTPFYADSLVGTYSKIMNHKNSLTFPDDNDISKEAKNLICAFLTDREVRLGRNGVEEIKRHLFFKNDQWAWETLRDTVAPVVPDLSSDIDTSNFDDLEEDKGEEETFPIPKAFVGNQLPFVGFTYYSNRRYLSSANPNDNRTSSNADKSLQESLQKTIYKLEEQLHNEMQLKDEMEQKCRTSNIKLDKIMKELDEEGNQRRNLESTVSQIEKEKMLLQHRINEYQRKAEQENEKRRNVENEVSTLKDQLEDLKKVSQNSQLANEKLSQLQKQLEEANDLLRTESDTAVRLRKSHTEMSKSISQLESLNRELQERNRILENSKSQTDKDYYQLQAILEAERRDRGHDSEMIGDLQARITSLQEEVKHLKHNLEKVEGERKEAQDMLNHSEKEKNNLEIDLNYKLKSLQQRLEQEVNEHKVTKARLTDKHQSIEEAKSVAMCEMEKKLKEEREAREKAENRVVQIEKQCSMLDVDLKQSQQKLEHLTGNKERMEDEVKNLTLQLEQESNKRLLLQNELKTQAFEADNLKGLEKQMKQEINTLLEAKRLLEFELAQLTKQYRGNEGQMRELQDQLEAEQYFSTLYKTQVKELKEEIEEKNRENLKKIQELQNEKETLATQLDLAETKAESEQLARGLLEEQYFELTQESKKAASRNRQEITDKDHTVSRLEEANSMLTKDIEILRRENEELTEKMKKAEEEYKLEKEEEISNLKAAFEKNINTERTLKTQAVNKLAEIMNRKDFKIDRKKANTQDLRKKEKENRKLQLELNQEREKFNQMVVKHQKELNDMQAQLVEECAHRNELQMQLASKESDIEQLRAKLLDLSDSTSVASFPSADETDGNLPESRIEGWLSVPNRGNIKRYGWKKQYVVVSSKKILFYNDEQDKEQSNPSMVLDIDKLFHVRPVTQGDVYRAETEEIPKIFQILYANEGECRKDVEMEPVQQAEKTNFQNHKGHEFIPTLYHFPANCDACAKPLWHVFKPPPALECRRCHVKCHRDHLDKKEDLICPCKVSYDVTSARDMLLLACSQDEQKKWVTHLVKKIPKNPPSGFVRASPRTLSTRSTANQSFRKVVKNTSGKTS
# Serine/threonine-protein kinase pim-2, sequence (Q9P1W9 whole entry, looked up): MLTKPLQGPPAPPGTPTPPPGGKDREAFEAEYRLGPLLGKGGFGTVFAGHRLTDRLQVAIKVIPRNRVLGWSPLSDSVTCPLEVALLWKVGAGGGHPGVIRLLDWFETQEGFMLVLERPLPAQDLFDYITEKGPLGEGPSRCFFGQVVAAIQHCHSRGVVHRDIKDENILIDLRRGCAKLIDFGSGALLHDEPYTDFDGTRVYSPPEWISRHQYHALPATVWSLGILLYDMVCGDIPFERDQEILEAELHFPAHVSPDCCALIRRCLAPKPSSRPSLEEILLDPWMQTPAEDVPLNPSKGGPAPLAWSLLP
smiles,measurement,setting,value
COc1cc(Nc2nc(C)cc(-c3cnn4nc(OC)ccc34)n2)cc(C(F)(F)F)c1,% of control,[1],97%
CN1Cc2nccc(-c3cn(C)nc3-c3ccc(F)cc3)c2C1=O,% of inhibition,[2],-2%
COCC(=O)NC/C=C/c1ccc2ncnc(Nc3ccc(Oc4ccc(C)nc4)c(C)c3)c2c1 [CP-724714],% of control,[3],90%
C=CC(=O)Nc1cc(-n2c(=O)ccc3cnc4ccc(-c5ccc(NS(C)(=O)=O)cc5)cc4c32)ccc1C,% of control,[4]; at 1 µM,100%
same,% of control,[4]; at 10 µM,100%
N#Cc1cccc(-c2c[nH]c3ncnc(N4CCOCC4)c23)c1,% of control,[5],4.8%
same,% of control,[6],100%
CNC(=O)Nc1ccc(-c2nc(N3CC4CCC(C3)O4)c3cnn(C4CCC5(CC4)OCCO5)c3n2)cc1,% of control,[7],100%
C=CC(=O)Nc1cccc(C(=O)Nc2ccc(Nc3cc(-c4[nH]c(SC)nc4C)ccn3)cc2)c1,% of control,[8]; at 1 µM,86%
same,% of control,[8]; at 5 µM,81%
